Laboratory results: US20060134225A1, “Phosphate binder with reduced pill burden” (priority 2004, published 2006)

What was measured:
[1] = system: adult Sprague-Dawley rats; assay: In vivo study in 5/6 nephrectomized rats, urine phosphorus excretion; design: species or system rat; details: 314 mg elemental lanthanum/kg/day oral, 14 days, compared to untreated rats
Protocol: Groups of six adult Sprague-Dawley rats underwent ⅚th nephrectomy in two stages over a period of 2 weeks and were then allowed to recover for a further two weeks prior to being randomized for treatment. The groups received vehicle (0.5% w/v carboxymethyl cellulose), or lanthanum oxycarbonate suspended in vehicle, once daily for 14 days by oral […] (10 ml/kg/day). The dose delivered 314 mg elemental lanthanum/kg/day. Dosing was carried out immediately before the dark (feeding) cycle on each day. Urine samples (24 hours) were collected prior to surgery, prior to the commencement of treatment, and twice weekly during the treatment period. Volume and phosphorus concentration were measured.
Feeding—During the acclimatization and surgery period, the animals were given Teklad phosphate sufficient diet (0.5% Ca, 0.3% P; Teklad No. TD85343), ad libitum. At the beginning of the treatment period, animals were pair fed based upon the average food consumption of the vehicle-treated animals the previous week.
5/6 Nephrectomy—After one week of acclimatization, all animals were subjected to 5/6 nephrectomy surgery. The surgery was performed in two stages. First, the two lower branches of the left renal artery were ligated. One week later, a right nephrectomy was performed. […]

adult beagle dogs = assay: Dog study, urine phosphate excretion; format: in vivo; details: oral capsules, 2250 mg elemental lanthanum twice daily
Protocol: The doses were administered 30 minutes after provision of food to the animals. At least 14 days washout was allowed between the crossover arms. Plasma was obtained pre-dose and 1.5, 3, 6, 7.5, 9, 12, 24, 36, 48, 60, and 72 hours after dosing and analyzed for lanthanum using ICP-MS. Urine was collected by catheterization before and approximately 24 hours after dosing and creatinine and phosphorus concentrations measured.

Molecule: O=C([O-])[O-].[La+3].[OH-] [lanthanum carbonate hydroxide]
- phosphorus excretion in urine (marker of dietary phosphorus binding) [1]: decrease in phosphorus excretion

Molecule: lanthanum oxycarbonate
- phosphorus excretion in urine (marker of dietary phosphorus binding) [1]: decrease in phosphorus excretion

Molecule: O=C([O-])[O-].[La+3].[La+3].[O-2].[O-2] [compound B, La2O2CO3]
- urine phosphate excretion (marker of phosphorous binding) (adult beagle dogs): reduction of urine phosphate excretion

Molecule: O=C([O-])[O-].[La+3].[OH-] [compound A, LaCO3OH]
- urine phosphate excretion (marker of phosphorous binding) (adult beagle dogs): reduction of urine phosphate excretion
